Laboratory results from US20260242350A1, “POLYCYCLIC THYROID HORMONE BETA RECEPTOR AGONIST AND USE THEREOF” (CASCADE PHARMACEUTICALS, INC., priority 2023, published 2026).

Legend:
THRβ (pGAL4-THRβ-LBD) = target: T1, THRβ (pGAL4-THRβ-LBD) (Homo sapiens, UniProt P10828); experiment: Reporter gene (Dual-Glo luciferase) agonist activity assay in HEK293T cells, THRβ; format: cell-based; settings: ratio of EC50 THRα/THRβ
T1 construct: expressed in transfected cells; host or cells: HEK293T
T1 sequence (P10828 217-461): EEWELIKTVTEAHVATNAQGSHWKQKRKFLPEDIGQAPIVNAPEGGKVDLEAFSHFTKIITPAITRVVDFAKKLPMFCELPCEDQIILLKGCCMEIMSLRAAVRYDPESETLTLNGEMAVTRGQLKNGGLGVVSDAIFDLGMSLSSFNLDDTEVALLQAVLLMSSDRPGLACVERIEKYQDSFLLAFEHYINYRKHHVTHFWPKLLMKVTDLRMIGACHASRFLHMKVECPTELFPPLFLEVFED
Source text: Experimental Example 2: Detection of Agonist Activities of Compounds Against THRα and THRβ Based on Reporter Gene Activity Assay Method
1.1 Construction and Preparation of Plasmids pGAL4-THR-LBD and pG5-Luc
The pGAL4-THRα-LBD and pGAL4-THRβ-LBD plasmids used in the reporter gene assay system were constructed by a conventional molecular cloning method comprising the following main steps: the cDNA sequences of THRα (NM_003250) and THRβ(NM_000461) corresponding to the amino acid sequences of THRα (163-407AA) and THRβ(217-461AA) were inserted into the BamHI and NotI enzyme digestion sites of the pGAL4 vector by the PCR technique respectively to obtain the pGAL4-THRα-LBD and pGAL4-THRβ-LBD plasmids; the pG5-Luc (#E249A) and pRL-TK (#E2241) plasmids were purchased from Promega; the plasmids were transfected into the E. coli DH5a by the CaCl2 method, and after further culture and amplification, the plasmids were purified by Plasmid Extraction Kits (TIANGEN, #D107) to obtain the corresponding plasmid DNAs.
1.2 Co-Transfection of Plasmids into HEK293T Cells and Treatment with Compounds
The HEK293T cells were inoculated into a 96-well plate at a density of 1×10^4/well the day before plasmid transfection. Cell transfection was conducted according to the instructions of the transfection reagent FuGENE® HD (Promega, #E2311). The main steps were as follows: taking one well as an example here, the plasmids pGAL4-THRα-LBD or pGAL4-THRβ-LBD, pG5-Luc, and pRL-TK were added in the proportions of 20 ng, 50 ng, and 5 ng to 10 μL of Opti-MEM™ I medium (Gibco, #11058021) and mixed well; subsequently, 0.25 μL of FuGENE® HD was added, mixed well, and then left at room temperature for 5 min; afterwards, […] was added to the cell wells containing 100 μL of culture medium. After cell co-transfection for 6 h, the compound was diluted in a 3-fold gradient with dimethyl sulfoxide at the highest concentration of 1 μM. The compound was added to the cell culture medium at a total of 10 concentrations for treatment for 24 h. There were a total of two duplicate wells for each concentration. Triiodothyronine (T3) was used as the positive control.
1.3 Dual-Glo Luciferase Assay
After the cells were treated with the compound for 24 h, the cells were assayed according to the instructions of Dual-Glo® Luciferase Assay System (Promega, #E2940). The main steps were as follows: 50 μL of culture medium was aspirated from each well and discarded, and then 50 μL of Dual-Glo® Luciferase reagent was added and oscillated at room temperature for 10 min; 80 μL of lysis reaction solution was measured into a white opaque optiPlate-96-well plate, and the luminescence signal value (Firefly-Luc) of the Firefly luciferase was detected using an MD i3x multi-mode microplate reader; 40 μL of Dual-Glo® Stop & Glo® reagent was then added, and oscillated at room temperature for 10 min; the luminescence signal value (Renilla-Luc) of the Renilla luciferase was then detected using an MD i3x multi-mode microplate reader. The Firefly-Luc/Renilla-Luc ratio was used as the activation activity of the compound against THR, and was normalized against the ratio in the vehicle DMSO group; the dose-response curve was fitted with four parameters using the GraphPad Prism6.0 software, and the EC50 value was calculated.

[1] = target: T2, THRα LBD (His-GST-dLBT-THRα LBD) (Homo sapiens, UniProt P10827); experiment: THR-FRET (time-resolved fluorescence resonance energy transfer) agonist activity assay, THRα; format: biochemical; settings: 24 h at room temperature
T2 construct: made in house; host or cells: E. coli BL21 (DE3)
T2 sequence (P10827 163-407 isoform P10827-2): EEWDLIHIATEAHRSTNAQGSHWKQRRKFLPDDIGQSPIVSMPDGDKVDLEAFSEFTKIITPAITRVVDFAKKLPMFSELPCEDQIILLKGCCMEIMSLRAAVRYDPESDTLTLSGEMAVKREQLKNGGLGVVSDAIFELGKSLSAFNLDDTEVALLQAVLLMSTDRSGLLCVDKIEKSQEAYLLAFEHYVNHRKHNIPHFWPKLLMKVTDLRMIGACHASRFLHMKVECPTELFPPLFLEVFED
Source text: (§1) Experimental Example 1: Detection of Agonist Activities of Compounds Against THRα/β Based on Time-Resolved Fluorescence Resonance Energy Transfer (THR-FRET)
(§2) 1. Construction of THRα/β Overexpression Vectors
(§3) By visiting NCBI, the THRα/β LBD domain sequences were found. The pET21-His-GST-dLBT-THRα LBD and pET21-His-GST-dLBT-THRβLBD overexpression vectors were constructed by the fusion method, and sequenced to confirm the accuracy of the sequences.
(§4) 2. Prokaryotic Expression of Recombinant Proteins in E. coli
(§5) The THRα LBD and THRβLBD overexpression vectors confirmed by sequencing were transfected into E. coli cells BL21 (DE3), and spread on an ampicillin-resistant agar plate. Monoclones were picked out and amplified in an LB medium, and transferred into 1 L LB at a ratio of 1:100 for large-scale culture. When the OD value was at 0.8 to 1.2, 0.5 mM isopropyl-beta-D-thiogalactopyranoside (IPTG) was added, and induced overnight at 18° C. The bacteria were harvested, disrupted, and purified via the GST column and the molecular sieve to obtain two proteins His-GST-dLBT-THRα LBD and His-GST-dLBT-THRβLBD.
(§6) 3. Preparation of Compounds and Formulation of Reaction System
(§7) The proteins were taken out from a refrigerator at −80° C. The protein s with the GST-tagged THRα/p LBD domain and the Eu-labelled GST antibodies were thawed slowly on ice, and an assay buffer containing a final concentration of 5 mM dithiothreitol (DTT) was formulated.
(§8) 3.1 Preparation of Compounds
(§9) The starting concentration of the compound was 10 μM (in DMSO). The compound (100 μM in DMSO) was subjected to 3-fold isogradient dilution with DMSO to obtain a total of 11 isogradient concentrations. Subsequently, the above compounds at the isogradient concentration were further subjected to 50-fold dilution with an assay buffer containing 5 mM DTT.
(§10) 3.2 Formulation of THR-FRET Reaction System
(§11) The final concentrations of all components were calculated based on a system with a final volume of 20 µL per well. To […] of assay buffer containing 5 mM DTT, the GST-tagged THRα/β proteins, the SRC2 ([…]) polypeptide, XL665 (Cisobio, #610SAXLB), and the Eu-labeled GST antibody were added, and the final concentrations were 2 nM, 200 nM, 0.05 nM, and 7.6 nM respectively to formulate 18 μL of reaction mixture of the proteins, polypeptide, and antibody per well.
(§12) 18 μL of reaction mixture and 2 μL of diluted compound were added into an optiplate-384-well plate, and reacted at room temperature for 24 h.
(§13) The plate was read using an MD i3x multi-mode microplate reader with the excitation and emission wavelengths of 340 nm and 665 nm, respectively. The intensity of light at a wavelength of 616 nm generated by europium excited by 340 nm wavelength light from the MD i3x multi-mode microplate reader was used as the background. According to the different activation degrees of different compounds against THRα and THRβ, the intensity of the emission light at a wavelength of 665 nm generated by exciting XL665 with the exciting light at a wavelength of 616 nm was varied. The intensity ratio between these two light wavelengths (665 nm, 616 nm) was used as the activation activity of the compound against THRα or THRβ, and was normalized against the ratio in the vehicle DMSO group. The dose-response curve was fitted with four parameters using the GraphPad Prism 6.0 software, and the EC50 value was calculated.

[2] = target: T3, THRβ LBD (His-GST-dLBT-THRβLBD) (Homo sapiens, UniProt P10828); experiment: THR-FRET (time-resolved fluorescence resonance energy transfer) agonist activity assay, THRβ; format: biochemical; settings: for EC50: 24 h at room temperature; for Selectivity (THRα/THRβ): ratio of EC50 THRα/THRβ
T3 construct: made in house; host or cells: E. coli BL21 (DE3)
T3 sequence (P10828 217-461 limits assumed): T1 sequence (P10828 217-461)
Source text: as §1, §2, §3, §4, §5, §6, §7, §8, §9, §10, §11, §12, §13

| SMILES | Selectivity (THRα/THRβ) (THRβ (pGAL4-THRβ-LBD)) | EC50 [1] [nM] | EC50 [2] [nM] | Selectivity (THRα/THRβ) [2] |
| --- | --- | --- | --- | --- |
| O=c1cnn(-c2cc(Cl)c(Cn3ccc(=O)c4ccccc43)c(Cl)c2)c(=O)[nH]1 [Compound 1] | † (5 ≥ THRα/β) | 1000 to 10000 | 100 to 1000 | †† (10 > THRα/β > 1) |
| O=c1cnn(-c2cc(Br)c(Cn3ccc(=O)c4ccccc43)c(Br)c2)c(=O)[nH]1 [Compound 2] | † (5 ≥ THRα/β) | 100 to 1000 | < 50 | †† (10 > THRα/β > 1) |
| O=c1cnn(-c2cc(Cl)c(Cn3ccc(=O)c4cc(F)ccc43)c(Cl)c2)c(=O)[nH]1 [Compound 5] | † (5 ≥ THRα/β) | – | – | – |
| O=c1cnn(-c2cc(Cl)c(Cn3ccc(=O)c4cc(Cl)ccc43)c(Cl)c2)c(=O)[nH]1 [Compound 6] | † (5 ≥ THRα/β) | – | – | – |
| O=c1cnn(-c2cc(Cl)c(Cn3ccc(=O)c4cc(Br)ccc43)c(Cl)c2)c(=O)[nH]1 [Compound 7] | † (5 ≥ THRα/β) | – | – | – |
| O=c1cnn(-c2cc(Cl)c(Cn3ccc(=O)c4cc(OC(F)(F)F)ccc43)c(Cl)c2)c(=O)[nH]1 [Compound 8] | † (5 ≥ THRα/β) | – | – | – |
| O=c1cnn(-c2cc(Cl)c(Cn3ccc(=O)c4ccc(Cl)cc43)c(Cl)c2)c(=O)[nH]1 [Compound 12] | † (5 ≥ THRα/β) | – | – | – |
| CCOC(=O)c1cn(Cc2c(Cl)cc(-n3ncc(=O)[nH]c3=O)cc2Cl)c2ccccc2c1=O [Compound 21] | † (5 ≥ THRα/β) | – | – | – |
| COC(=O)c1cc2c(=O)ccn(Cc3c(Cl)cc(-n4ncc(=O)[nH]c4=O)cc3Cl)c2cc1OC [Compound 27] | † (5 ≥ THRα/β) | – | – | – |
| N#Cc1nn(-c2cc(Cl)c(Cn3ccc(=O)c4ccccc43)c(Cl)c2)c(=O)[nH]c1=O [Compound 31] | – | 1000 to 10000 | 100 to 1000 | †† (10 > THRα/β > 1) |
| C#Cc1nn(-c2cc(Cl)c(Cn3ccc(=O)c4ccccc43)c(Cl)c2)c(=O)[nH]c1=O [Compound 40] | – | 100 to 1000 | 50 to 100 | †† (10 > THRα/β > 1) |
| Cn1nc(-c2cc(Cl)c(Cn3ccc(=O)c4ccccc43)c(Cl)c2)c(=O)[nH]c1=O [Compound 51] | † (5 ≥ THRα/β) | – | – | – |
| O=c1[nH]c(COc2cc(Cl)c(Cn3ccc(=O)c4ccccc43)c(Cl)c2)no1 [Compound 58] | – | 100 to 1000 | 100 to 1000 | †† (10 > THRα/β > 1) |
| O=c1ccn(Cc2c(Cl)cc(OCc3nnn[nH]3)cc2Cl)c2ccccc12 [Compound 59] | – | 100 to 1000 | 100 to 1000 | †† (10 > THRα/β > 1) |
| O=C(O)CNc1cc(Cl)c(Cn2ccc(=O)c3ccccc32)c(Cl)c1 [Compound 60] | – | 100 to 1000 | 100 to 1000 | †† (10 > THRα/β > 1) |
| O=C(O)CC(=O)Nc1cc(Cl)c(Cn2ccc(=O)c3ccccc32)c(Cl)c1 [Compound 61] | – | 1000 to 10000 | 100 to 1000 | †† (10 > THRα/β > 1) |
| O=C(O)C(=O)Nc1cc(Cl)c(Cn2ccc(=O)c3ccccc32)c(Cl)c1 [Compound 62] | – | 100 to 1000 | 50 to 100 | †† (10 > THRα/β > 1) |
| O=c1[nH]nc(CNc2cc(Cl)c(Cn3ccc(=O)c4ccccc43)c(Cl)c2)o1 [Compound 63] | – | 1000 to 10000 | 100 to 1000 | †† (10 > THRα/β > 1) |
| O=c1[nH]c(CNc2cc(Cl)c(Cn3ccc(=O)c4ccccc43)c(Cl)c2)no1 [Compound 64] | – | 100 to 1000 | 50 to 100 | †† (10 > THRα/β > 1) |
| O=c1ccn(Cc2c(Cl)cc(NCc3nnn[nH]3)cc2Cl)c2ccccc12 [Compound 65] | – | 100 to 1000 | < 50 | ††† (THRα/β ≥ 10) |
| O=C(Nc1cc(Cl)c(Cn2ccc(=O)c3ccccc32)c(Cl)c1)c1noc(=O)[nH]1 [Compound 66] | – | 1000 to 10000 | 100 to 1000 | ††† (THRα/β ≥ 10) |
